Laboratory results published in article PMC3063489 (Molecular and biochemical parasitology, 2011).
Read-outs that look alike come from different tables or passages of the source.

Legend:
GFP-SmDAT = GFP-SmDAT (Schistosoma mansoni, UniProt E9LD23); type: cell-based; conditions: COS-7 cells; for uptake of tritiated substrate by SmDAT: 100 nM of each substrate, normalized to dopamine uptake (Fig. 2A)
[1] = tested on: Schistosoma mansoni adult worms; conditions: adult worms treated with dopamine; cited from earlier work
hDAT = hDAT (Homo sapiens, UniProt Q01959); conditions: COS-7 cells
Sequence of hDAT (Q01959 whole entry): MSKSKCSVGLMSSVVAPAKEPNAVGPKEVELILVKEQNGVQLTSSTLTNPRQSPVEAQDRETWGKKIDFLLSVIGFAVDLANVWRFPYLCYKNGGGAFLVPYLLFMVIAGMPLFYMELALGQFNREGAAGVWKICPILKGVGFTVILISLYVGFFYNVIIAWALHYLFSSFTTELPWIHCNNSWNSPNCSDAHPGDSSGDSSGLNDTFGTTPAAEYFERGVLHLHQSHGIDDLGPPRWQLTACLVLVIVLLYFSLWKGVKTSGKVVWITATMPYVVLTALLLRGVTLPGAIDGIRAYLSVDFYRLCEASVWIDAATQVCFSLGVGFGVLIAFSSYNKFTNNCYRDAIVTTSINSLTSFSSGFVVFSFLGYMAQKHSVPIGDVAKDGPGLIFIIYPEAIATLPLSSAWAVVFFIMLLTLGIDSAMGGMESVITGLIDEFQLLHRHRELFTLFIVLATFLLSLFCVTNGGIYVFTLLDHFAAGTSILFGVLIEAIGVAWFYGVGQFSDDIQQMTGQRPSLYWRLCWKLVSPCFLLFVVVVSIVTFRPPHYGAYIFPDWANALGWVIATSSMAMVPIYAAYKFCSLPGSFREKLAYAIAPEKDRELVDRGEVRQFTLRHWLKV

Schistosoma = conditions: cited from earlier work

NC[C@H](O)c1ccc(O)c(O)c1 [Norepinephrine]
uptake of tritiated substrate by SmDAT (GFP-SmDAT): low but significant levels

NCCc1ccc(O)c(O)c1 [dopamine]
Vmax of dopamine uptake, GFP-SmDAT (GFP-SmDAT): 0.16 ± 0.04 pmol/well/min
Vmax of dopamine uptake, GFP-SmDAT (GFP-SmDAT; unit as printed in legend of Fig. 2): 0.16 ± 0.04 pmol/min
effect on adult worms [1]: relaxation of muscles and a lengthening of the worms
Vmax of dopamine uptake, hDAT (hDAT): 0.9 ± 0.2 pmol/well/min

O=C(C1CCCCC1)N1CC(=O)N2CCc3ccccc3C2C1 (stereo not shown) [praziquantel]
activity on immature worms and eggs (Schistosoma): not active

NCCc1c[nH]c2ccc(O)cc12 [serotonin]
uptake of tritiated substrate by SmDAT (GFP-SmDAT): could not detect any detectable levels
